What all share (assay): inhibition of tumour cell growth, NCI panel, 48 h
In assay [1] the test system is HCT-116.
The test system of assay [2] is TK-10.
For assay [3], the system named is HOP-92.
Assay [4] concerns RPMI-8226.
The subject of assay [5] is ACHN.
Assay [6] concerns OVCAR-8.
For assay [7], the system named is HOP-62.
Assay [8] relates to HOP-18.
Assay [9] relates to SF-268.
Assay [10] relates to SK-OV-3.
The subject of assay [11] is SF-295.
Assay [12] has as its system RXF 393.
In assay [13] the test system is UACC-257.
Assay [14] relates to A498.
Assay [15] has as its system SK-MEL-5.
The test system of assay [16] is SNB-19.
Assay [17] relates to SN12C.
Assay [18] deals with IGROV-1.
For assay [19], the system named is PC-3.
Assay [20] relates to Hs-578T.

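Cultured in 96-well plates, cells were exposed to test compound for 48 hours across five concentrations. GI50: concentration for 50% inhibition of growth.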 The source made the active and inactive calls. Cut-off read from the data, not from the text of the source: active = GI50 up to about 1.1 µM and inactive = higher.

Turning to `CC#CC1C2CCCC1(CSc1ccccc1)NC(=O)O2` (centres undefined), the GI50 in assay [1] was > 100 µM (inactive); in assay [2], > 100 µM (inactive); in [3], > 100 µM (inactive); in assay [4], 63.8 µM (inactive); in [5], > 100 µM (inactive); in assay [6], > 100 µM (inactive). Moreover, the GI50 in [7], in assay [8], in [9], in assay [10], in assay [11] and in assay [12] was > 100 µM (inactive) in each case. Moreover, the GI50 in [13], in assay [14], in assay [15], in [16], in [17] and in assay [18] was > 100 µM (inactive) each time.

In the case of `COc1cc2c(c(OC)c1OC)-c1cccc(=O)cc1C(NC(C)=O)CC2` (centres undefined), the GI50 in assay [1] was 0.055 µM (active); in [2], > 28.2 µM (inactive); in assay [3], 0.0863 µM (active); in [4] it was 0.0267 µM (active); in assay [5], 0.953 µM (active); in [6] it was 0.2 µM (active). Further, the GI50 in [7] is 0.172 µM (active); in assay [8] it was > 100 µM (inactive); in [9], 0.128 µM (active); in assay [10], 0.485 µM (active); in assay [11] it was 0.0792 µM (active); in assay [12] it was 0.0543 µM (active). Further, the GI50 in assay [19] is 0.0152 µM (active); in [13] it was 0.0607 µM (active); in assay [14], 0.332 µM (active); in assay [15] it was 0.0397 µM (active); in assay [16], 0.748 µM (active); in [20], > 100 µM (inactive). Also, the results for the GI50 in assay [17] and in assay [18] were 0.339 µM (active) and 0.166 µM (active), respectively.

Regarding `CC(=O)C1Cn2c(nc3ccccc32)C[Se]1` (centres undefined), the GI50 was 2.2 µM (inactive) in assay [1]; 4.41 µM (inactive) in assay [2]; 2.09 µM (inactive) in assay [3]; 25.3 µM (inactive) in [4]; 3.39 µM (inactive) in [5]; 4.09 µM (inactive) in assay [6]. Besides, the GI50 in assay [7] was 2.37 µM (inactive); in assay [8], 2.61 µM (inactive); in assay [9], 3.85 µM (inactive); in [10] it was 19.5 µM (inactive); in assay [11] it was 3.26 µM (inactive); in [12] it was 2.34 µM (inactive). Moreover, the GI50 in assay [13] was 2.48 µM (inactive); in assay [14], 17.7 µM (inactive); in [15], 2 µM (inactive); in [16], 5 µM (inactive); in assay [17], 4.43 µM (inactive); in assay [18], 2.22 µM (inactive).

On to `Cc1cc(O)c2c(c1)C[C@@H](O)C1=C2C(=O)c2c(O)ccc(OC3CC(O)C(OC4CC(OC5CCC(OC6CC(O)C(OC7CC(OC8CCC(O)C(C)O8)C(O)C(C)O7)C(C)O6)C(C)O5)C(O)C(C)O4)C(C)O3)c2C1=O` (some centres undefined), for which the GI50 in [1] was 0.0492 µM (active); in [2] it was 0.184 µM (active); in assay [3], 0.178 µM (active); in [4] it was 0.0265 µM (active); in [5] it was 0.0845 µM (active); in assay [6] it was 0.0224 µM (active). In addition, the GI50 in assay [7] is 0.232 µM (active); in assay [8], 0.0403 µM (active); in assay [9], 0.0243 µM (active); in assay [11], 0.0441 µM (active); in [12], 0.0687 µM (active); in [19] it was 0.223 µM (active). Further, the GI50 in assay [13] is 0.11 µM (active); in assay [14], 0.373 µM (active); in assay [15], 0.0879 µM (active); in assay [16] it was 0.177 µM (active); in assay [20], 0.0311 µM (active); in assay [17], 0.0581 µM (active). In addition, in [18], the GI50 is 0.176 µM (active).

With `COCCN1C2=CCCCC2=Nc2c(N)nc(N)nc21`, the GI50 in [1], in [2], in assay [3], in assay [4], in [5] and in [6] was > 100 µM (inactive) each time. The GI50 in assay [7], in [8], in [9], in assay [10], in assay [11] and in assay [12] was > 100 µM (inactive) throughout. The GI50 in assay [13], in assay [14], in [15], in assay [16], in assay [17] and in assay [18] was > 100 µM (inactive) throughout.

Regarding `CCC[C@H]1O[C@@H]2CC(=O)O[C@@H]2C2=C1C(=O)C=CC2=O`, the GI50 in assay [1] was 18 µM (inactive); in assay [2], > 42.8 µM (inactive); in [3], 2.7 µM (inactive); in assay [4] it was 25.6 µM (inactive); in assay [5], 13.1 µM (inactive); in assay [6], > 47.4 µM (inactive). Moreover, the GI50 in assay [7] is > 54.1 µM (inactive); in assay [8] it was 18 µM (inactive); in assay [9], 12.9 µM (inactive); in [10], > 39.9 µM (inactive); in [11], 25.4 µM (inactive); in [12], 16 µM (inactive). Also, the GI50 in [13] is 18.9 µM (inactive); in assay [14], 34.2 µM (inactive); in [15], 20.1 µM (inactive); in assay [16] it was > 60.4 µM (inactive); in assay [17], 18.1 µM (inactive); in assay [18] it was 18 µM (inactive).

Consider `c1cc2[se][se]c3c4cccc5[se][se]c(c(c1)c23)c54`, for which the GI50 in [1], in [2], in assay [3], in [4], in assay [5] and in assay [6] was > 100 µM (inactive) throughout. For the same compound, the GI50 in assay [7] is > 100 µM (inactive); in assay [8], 0.331 µM (active); in assay [9] it was > 100 µM (inactive); in [10], > 100 µM (inactive); in [11], > 100 µM (inactive); in [12], > 100 µM (inactive). In addition, the GI50 in assay [13], in assay [14], in assay [15], in assay [16], in assay [17] and in assay [18] was > 100 µM (inactive) in each case.

(Values after ChEMBL document CHEMBL1201862, “PubChem BioAssay data set” (2004).)
